Test results published in PMC5430895 (Scientific Reports, 2017).

How the values were obtained:
hOCT1 = target: T1, hOCT1 (Homo sapiens, UniProt O15245); experiment: Inhibition of ASP+ uptake in hOCT1-HEK293 cells (apparent affinity); format: cell-based; design: expressed in transfected cells; host or cells: HEK293; details: hOCT1-HEK293, ASP+ 1 µM
T1 sequence (O15245 1-554): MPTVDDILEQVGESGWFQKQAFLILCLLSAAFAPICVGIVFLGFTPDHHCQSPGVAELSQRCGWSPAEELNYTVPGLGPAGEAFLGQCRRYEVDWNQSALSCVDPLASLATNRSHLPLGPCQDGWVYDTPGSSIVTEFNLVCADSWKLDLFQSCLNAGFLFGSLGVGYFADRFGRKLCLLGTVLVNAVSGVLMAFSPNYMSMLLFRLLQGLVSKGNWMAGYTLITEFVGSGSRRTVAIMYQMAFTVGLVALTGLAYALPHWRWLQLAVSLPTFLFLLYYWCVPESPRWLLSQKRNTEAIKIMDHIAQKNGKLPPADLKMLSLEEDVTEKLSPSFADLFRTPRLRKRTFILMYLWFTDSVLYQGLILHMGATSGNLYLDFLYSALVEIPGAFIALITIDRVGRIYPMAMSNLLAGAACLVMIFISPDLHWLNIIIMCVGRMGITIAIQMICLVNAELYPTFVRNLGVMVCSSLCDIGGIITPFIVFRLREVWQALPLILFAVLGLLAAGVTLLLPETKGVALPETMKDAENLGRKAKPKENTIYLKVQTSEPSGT

RASF = experiment: Saracatinib uptake in human RA synovial fibroblasts (HPLC-UV)
Experimental: The kinetic parameters Km and V max values were estimated by least-square nonlinear regression analysis using GraphPadPrism 5 software.
Unpaired student t-test was used for statistical analysis.
Cells were grown at standard conditions. Synovial fibroblasts (SF) were isolated from tissues of patients with rheumatoid arthritis (RA) (n = 8) obtained during joint replacement surgery after written informed consent was obtained. This procedure was approved by the Ethics Committee of the University of Münster, Germany; all methods were performed in accordance with the relevant guidelines and regulations. […] RA patients met the American College of Rheumatology criteria. Isolated fibroblasts were cultured under standard conditions for a maximum of eight passages. When indicated, RASF were incubated with 10 ng/ml TNFα (PeproTech, Hamburg, Germany). Cell number was evaluated with a CASEYTT cell counter (Roche Innovatis, Reutlingen, Germany).
(§1) After incubation, cells were washed with ice-cold PBS and hypoosmotic lysis was induced with 0.1% formic acid. […] The mobile phase consisted of (A) acetonitrile with 0.1% formic acid and (B) 0.1% formic acid and was delivered at 0.3 ml/min in a gradient program. After delivering 100% B for 3 min, a linear gradient to 100% A was applied within 7 min and maintained for 5 min. Thereafter, in order to re-equilibrate the column, a simple isocratic elution step with 100% eluent B was applied for at least 6 min. […] Separation was carried out on an Accucore C18 column equipped with a C18 guard column. The data were acquired by ChromQuest 5.0 chromatography software.

hMATE1 = target: T2, hMATE1 (Homo sapiens, UniProt Q96FL8); experiment: Saracatinib uptake in hMATE1-expressing HEK293 cells (HPLC-UV); details: hMATE1-HEK293, 10 µM saracatinib, 10 min; not significantly different from WT
T2 sequence (Q96FL8 1-570): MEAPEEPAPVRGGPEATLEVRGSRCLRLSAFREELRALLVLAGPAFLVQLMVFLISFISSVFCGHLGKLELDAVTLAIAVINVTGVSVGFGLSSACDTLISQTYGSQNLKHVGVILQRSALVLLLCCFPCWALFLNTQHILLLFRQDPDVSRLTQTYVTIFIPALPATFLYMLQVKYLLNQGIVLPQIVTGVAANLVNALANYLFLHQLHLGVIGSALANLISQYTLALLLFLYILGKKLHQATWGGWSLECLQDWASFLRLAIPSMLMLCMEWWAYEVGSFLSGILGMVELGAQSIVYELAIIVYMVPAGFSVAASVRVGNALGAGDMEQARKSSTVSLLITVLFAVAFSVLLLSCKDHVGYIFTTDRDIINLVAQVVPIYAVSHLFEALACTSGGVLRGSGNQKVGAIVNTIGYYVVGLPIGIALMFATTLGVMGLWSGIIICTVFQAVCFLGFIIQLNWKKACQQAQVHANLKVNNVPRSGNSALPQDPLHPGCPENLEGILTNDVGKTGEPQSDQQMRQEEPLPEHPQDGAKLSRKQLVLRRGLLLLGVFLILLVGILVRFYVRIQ

hOCT3 = target: T3, hOCT3 (Homo sapiens, UniProt O75751); experiment: Saracatinib uptake in hOCT3-overexpressing HEK293 cells (HPLC-UV); details: hOCT3-HEK293, 10 µM saracatinib, 10 min, difference of accumulation at 4 °C and 37 °C
T3 sequence (O75751 1-556): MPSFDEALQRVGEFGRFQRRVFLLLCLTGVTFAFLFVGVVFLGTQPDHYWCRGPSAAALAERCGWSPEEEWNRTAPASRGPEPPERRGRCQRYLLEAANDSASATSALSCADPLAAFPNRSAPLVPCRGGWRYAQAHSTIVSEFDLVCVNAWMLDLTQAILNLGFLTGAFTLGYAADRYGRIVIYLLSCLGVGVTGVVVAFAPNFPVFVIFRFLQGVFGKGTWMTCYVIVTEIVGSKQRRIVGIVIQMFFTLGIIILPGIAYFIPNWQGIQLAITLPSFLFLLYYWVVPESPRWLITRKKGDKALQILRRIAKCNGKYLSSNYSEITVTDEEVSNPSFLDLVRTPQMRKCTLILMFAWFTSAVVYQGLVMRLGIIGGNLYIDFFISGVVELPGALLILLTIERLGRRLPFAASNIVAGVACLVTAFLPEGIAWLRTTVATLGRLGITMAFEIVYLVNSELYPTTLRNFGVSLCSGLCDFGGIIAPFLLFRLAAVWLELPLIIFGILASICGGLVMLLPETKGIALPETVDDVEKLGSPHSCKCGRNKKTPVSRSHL

hOCTN1 [1] = target: T4, hOCTN1 (Homo sapiens, UniProt Q9H015); experiment: Saracatinib uptake in hOCTN1-overexpressing HEK293 cells (HPLC-UV)
T4 sequence (Q9H015 1-551): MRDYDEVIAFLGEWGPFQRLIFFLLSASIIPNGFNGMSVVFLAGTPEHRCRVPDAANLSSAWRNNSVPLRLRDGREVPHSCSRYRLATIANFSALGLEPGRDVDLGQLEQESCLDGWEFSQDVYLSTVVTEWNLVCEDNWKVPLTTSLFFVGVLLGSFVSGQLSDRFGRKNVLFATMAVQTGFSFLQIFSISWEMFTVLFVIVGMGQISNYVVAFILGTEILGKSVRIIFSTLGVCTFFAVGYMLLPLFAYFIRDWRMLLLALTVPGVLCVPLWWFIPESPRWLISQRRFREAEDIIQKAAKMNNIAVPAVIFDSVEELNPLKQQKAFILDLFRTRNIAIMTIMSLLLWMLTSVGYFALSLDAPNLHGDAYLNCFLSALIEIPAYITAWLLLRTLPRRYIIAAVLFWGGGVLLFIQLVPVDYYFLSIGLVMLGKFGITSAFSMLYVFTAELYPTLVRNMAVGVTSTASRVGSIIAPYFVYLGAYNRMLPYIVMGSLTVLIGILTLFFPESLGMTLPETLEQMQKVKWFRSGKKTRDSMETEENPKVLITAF
Experimental: Twenty-four hours before starting experiments hOCTN1 expression was induced by 1 mg/l doxycycline (Sigma-Aldrich, Steinheim, Germany). Cells were grown at standard conditions. […] Cell number was evaluated with a CASEYTT cell counter (Roche Innovatis, Reutlingen, Germany).
as §1

hOCTN1 [2] = target: T4, hOCTN1; experiment: Saracatinib uptake in RASF after hOCTN1 siRNA knockdown; format: in vitro ADME; design: expressed in transfected cells; host or cells: HEK293, expression induced with 1 mg/l doxycycline; details: RASF 24 h post-transfection with hOCTN1 siRNA

**Q.** What does the source list for `CN1CCN(CCOc2cc(OC3CCOCC3)c3c(Nc4c(Cl)ccc5c4OCO5)ncnc3c2)CC1` [saracatinib, N-(5-chloro-1,3-benzodioxol-4-yl)-7-[2-(4-methylpiperazin-1-yl)ethoxy]-5-(tetrahydro-2H-pyran-4-yloxy)quinazolin-4-amine]?
**A.** IC50 (hOCT1): 57 µM; influence of extracellular pH on saracatinib uptake (RASF; RASF): pH-dependent; increase of saracatinib uptake versus untreated controls (RASF; RASF treated for 18 h with TNFα (10 ng/ml)): 36 ± 5%; saracatinib transport capacity (Vmax) (RASF; RASF, 10 min incubation): 71.6 ± 4.1 nmol/mg protein/10 min; Km (RASF; read-out: Km of saracatinib uptake, RASF, 10 min incubation): 39.4 ± 9.4 µM; saracatinib accumulation (specific uptake) (hMATE1): 2.3 ± 0.7 nmol/mg protein; saracatinib accumulation (specific uptake) (hOCT3): 5.7 ± 0.1 nmol/mg protein; saracatinib accumulation (specific uptake) (hOCTN1 [1]; hOCTN1-HEK293, 10 µM saracatinib, 10 min, difference of accumulation at 4 °C and 37 °C): 9.3 ± 1.6 nmol/mg protein; influence of extracellular pH on saracatinib uptake (hOCTN1 [1]; hOCTN1-HEK293 cells): pH dependent; time for which hOCTN1 mediated saracatinib accumulation is linear (hOCTN1 [1]; hOCTN1-HEK293 cells, 10 µM saracatinib): at least 15 min; maximum saracatinib uptake (Vmax) (hOCTN1 [1]; hOCTN1-HEK293 cells, 10 min incubation): 79.7 ± 5.2 nmol/mg protein; uptake of saracatinib (hOCTN1 [2]): 2.6 ± 0.8 nmol/mg protein; uptake of saracatinib, % remaining versus scramble siRNA (hOCTN1 [2]): 26%
